Publication PMC4749642, “Evaluation of anticonvulsant and antinociceptive properties of new N-Mannich bases derived from pyrrolidine-2,5-dione and 3-methylpyrrolidine-2,5-dione” (Naunyn-Schmiedeberg's Archives of Pharmacology, 2015)
Where “and” joins values, the source holds several entries; their conditions need not be identical. Identical values can stand only once. Like-named read-outs stand apart in the source and are kept apart here. Marks after values point to notes of the source that are not given here.

Legend:
V. harveyi BB7 [1] = assay: Vibrio harveyi antimutagenicity assay (vs NQNO), BB7 strain; format: cell-based; settings: for inhibition of NQNO-induced mutagenicity in BB7 strain (in words): NQNO 40 ng/ml; for Antimutagenicity BB7 number of revertants Mean ± SD: test compound plus NQNO 40 ng/ml (NQNO line: mutagen only); for Antimutagenicity BB7 Inhib. (%) of mutagenicity: test compound plus NQNO 40 ng/ml, 25–40 % moderate, 40 % or more strong
Method: (§1) Two V. harveyi strains were used in the experiments: wild-type BB7 and genetically modified BB7XM (the UV-hypersensitive strain bearing plasmid pAB91273), which were described previously by Czyż et al. ([2000]).
(§2) Antimutagenicity assay was performed according to previously described procedures (Czyż et al. [2002]; Pękala et al. [2013]). […] This was calculated as follows: Inhibition (%) = 100 − [(R1/R2) × 100], where R1 is the number of revertants per plate induced by test compound plus mutagen and R2 is the number of revertants in the plate containing only the mutagen (Słoczyńska et al. [2010]). No antimutagenic effect was considered when the inhibition was less than 25 %; a moderate effect for an inhibition value between 25 and 40 % and a strong antimutagenicity were recorded for inhibition higher than 40 % (Gulluce et al. [2010]).

mice [2] = assay: Formalin hind paw test; format: in vivo, mouse; settings: dose 30 mg/kg i.p.; for antinociceptive effect (reduction of licking response), second (late) phase: 15–30 min after 5 % formalin
Method: (§3) Male CD-1 mice weighing 18–24 g were used in the in vivo experiment. The animals were kept at room temperature of 20 ± 2 °C under standard conditions (12:12 h light-dark cycle, standard pellet diet, tap water). All the experiments were performed between 8 a.m. and 3 p.m. For the experiments, the animals were selected in a random way and sacrificed by cervical dislocation immediately after the assay. The experimental protocol was approved by the Local Ethics Commission for Animal Experiments of the Jagiellonian University in Cracow, and all experiences were conducted in accordance with the 1996 NIH Guide for the Care and Use of Laboratory Animals.
(§4) The tested compounds 12 (N-[{4-(3,4-dichlorophenyl)-piperazin-1-yl}-methyl]-3-methylpyrrolidine-2,5-dione), 13 (N-[{4-(3-trifluoromethylphenyl)-piperazin-1-yl}-methyl]-3-methylpyrrolidine-2,5-dione), 15 (N-[{4-(3-methylphenyl)-piperazin-1-yl}-methyl]-3-methylpyrrolidine-2,5-dione), 23 (N-[{4-(3,4-dichlorophenyl)-piperazin-1-yl}-methyl]-pyrrolidine-2,5-dione), and 24 (N-[{4-(3-trifluoromethylphenyl)-piperazin-1-yl}-methyl]-pyrrolidine-2,5-dione) were synthesized at the Department of Medicinal Chemistry, Jagiellonian University Medical College in Cracow (Scheme 1). The synthesis of the investigated compounds was described earlier (Rybka et al. [2014]). The investigated compounds were suspended in a 0.5 % aqueous solution of methylcellulose (Loba Chemie, Germany). Lacosamide (Vimpat, UCB Pharma, Belgium), pilocarpine (Sigma-Aldrich, Germany), scopolamine butylbromide (Sigma-Aldrich, Germany), and formaldehyde (POCh, Poland) were dissolved in distilled water. Agents were administered intraperitoneally (i.p.) at a volume of 0.1 ml/10 g. Control animals were administered an equivalent volume of vehicle (0.5 % aqueous solution of methylcellulose) via the same route as the test compounds.
Antinociceptive activity in the formalin hind paw test was examined according to Laughlin et al. ([2002]). Twenty microliters of a 5 % formalin solution was injected intraplantarly (i.pl.) into the right hind paw of the mouse. […] Time (in seconds) spent on licking or biting the injected hind paw in selected intervals, 0–5 and 15–30 min, was measured in each experimental group and was an indicator of nociceptive behavior. In mice, intraplantarly injection of diluted formalin produces a biphasic nocifensive behavioral response (i.e., licking or biting the injected hind paw). The acute nociceptive phase lasts for the first 5 min, whereas the second inflammatory phase occurs between 15 and 30 min after formalin injection.

mice [3] = assay: Pilocarpine-induced seizure test; format: in vivo, mouse; settings: for Latency to status epilepticus (s) ± SEM: 4 h before pilocarpine 400 mg/kg; for Anticonvulsant effect (%) (prolongation of latency time to seizures vs vehicle): 4 h before pilocarpine, 100 mg/kg
Method: as §3, §4
The experimental procedure was originally described by Turski et al. ([1987]). Seizures were induced in mice by i.p. injection of pilocarpine at a dose of 400 mg/kg. Forty-five minutes before pilocarpine, animals were also pretreated with scopolamine butylbromide (1 mg/kg, i.p.) to reduce peripheral autonomic side effects and masticatory and stereotyped movements (Kowalczyk et al. [2014]). Direct observation was performed for 60 min to monitor the latency time to the onset of the limbic seizures, characterized by a subsequent development of behavioral symptoms, such as tremor, head bobbing, and myoclonic movements of the forelimbs progressing to recurrent myoclonic convulsions with rearing, salivation, falling, and status epilepticus (Łuszczki et al. [2008]; Turski [2000]).

V. harveyi BB7XM [4] = assay: Vibrio harveyi mutagenicity assay, BB7XM strain; settings: 40 ng/ml; for Mutagenicity BB7XM M.I. (mutagenic index): positive assay when M.I. ≥ 2
Method: as §1
(§5) Mutagenicity assay was performed as described previously (Czyż et al. [2000]). All experiments were carried out in triplicate and the results were expressed as mutagenic index (M.I. = the number of revertant colonies induced in the tested sample/the number of spontaneous revertants in the negative control) (Gulluce et al. [2010]).

V. harveyi BB7 [5] = assay: Vibrio harveyi mutagenicity assay, BB7 strain; settings: 40 ng/ml; for Mutagenicity BB7 M.I. (mutagenic index): positive assay when M.I. ≥ 2
Method: as §1, §5

V. harveyi BB7XM [6] = assay: Vibrio harveyi antimutagenicity assay (vs NQNO), BB7XM strain; format: cell-based; settings: for Antimutagenicity BB7XM number of revertants Mean ± SD: test compound plus NQNO 40 ng/ml (NQNO line: mutagen only); for Antimutagenicity BB7XM Inhib. (%) of mutagenicity: test compound plus NQNO 40 ng/ml, 25–40 % moderate, 40 % or more strong
Method: as §1, §2

mice [7] = assay: Electroconvulsive threshold test (MEST test); format: in vivo, mouse; settings: 4 h before the test; for CS50 (mA) (CI): value with 95 % confidence interval
mice [8] = settings: ref Rybka et al. [2014]; cited from earlier work
[9] = system: L-type calcium channel (dihydropyridine site); assay: L-type Ca channel (dihydropyridine site) [3H]nitrendipine binding assay; settings: rat cerebral cortex
mice [10] = assay: Spontaneous locomotor activity (photoresistor actometers); format: in vivo, mouse; settings: dose 30 mg/kg i.p.; 30-min session
Method: as §3, §4
Locomotor activity was measured with photoresistor actometers (Ugo Basile, Italy) connected to a counter for the recording of light-beam interruptions. Mice were individually placed in plastic cages for 30 min habituation period, and then the number of light-beam crossings was counted for a 30-min session. The cages were cleaned up with 70 % ethanol after each mouse.

mice [11] = assay: Hot plate test; format: in vivo, mouse; settings: dose 30 mg/kg i.p.
Method: as §3, §4
In the hot plate test, the mice were i.p. pretreated either with the test compound or vehicle before placing the animal on the hot plate apparatus (Panlab/Harvard Apparatus, Spain). This apparatus has an electrically heated surface and is supplied with a temperature controller that maintains the temperature at 55–56 °C. The time to the first reaction (licking or jumping) of mice to a nociceptive stimulus was recorded. The cutoff time was established to 60 s to avoid paw tissue damage (Sałat et al. [2014]).

mice [12] = system: mice; design: method as in Rybka et al. [2014]; settings: ref Rybka et al. [2014], cited from earlier work; for motor coordination in the rotarod test (in words): up to a dose of 500 mg/kg
[13] = system: L-type calcium channel (dihydropyridine site); design: method as in Kamiński et al. [2015b]; settings: 100 μM; [3H]nitrendipine; rat cerebral cortex; ref Kamiński et al. [2015b]; cited from earlier work

| SMILES | inhibition of NQNO-induced mutagenicity in BB7 strain (in words) (V. harveyi BB7 [1]) | Antimutagenicity BB7 number of revertants Mean ± SD (V. harveyi BB7 [1]) | Antimutagenicity BB7 Inhib. (%) of mutagenicity (V. harveyi BB7 [1]) | antinociceptive effect (reduction of licking response), second (late) phase (mice [2]) | Latency to status epilepticus (s) ± SEM (mice [3]; dose 100 mg/kg i.p.) | Anticonvulsant effect (%) (prolongation of latency time to seizures vs vehicle) (mice [3]; dose 100 mg/kg i.p.) | Mutagenicity BB7XM number of revertants Mean ± SD (V. harveyi BB7XM [4]) | Mutagenicity BB7XM M.I. (mutagenic index) (V. harveyi BB7XM [4]) | Mutagenicity BB7 number of revertants Mean ± SD (V. harveyi BB7 [5]) | Mutagenicity BB7 M.I. (mutagenic index) (V. harveyi BB7 [5]) | Antimutagenicity BB7XM number of revertants Mean ± SD (V. harveyi BB7XM [6]) | Antimutagenicity BB7XM Inhib. (%) of mutagenicity (V. harveyi BB7XM [6]) | increase of electroconvulsive threshold (ECT) vs vehicle (mice [7]; dose 10 mg/kg i.p.) | CS50 (mA) (CI) (mice [7]; dose 10 mg/kg i.p.) | increase of electroconvulsive threshold (ECT) vs vehicle (mice [7]; dose 30 mg/kg i.p.) | CS50 (mA) (CI) (mice [7]; dose 30 mg/kg i.p.) | ED50 in the s.c.PTZ test (mice [8]) | % inhibition of control specific binding ([9]; 10 μM) | % inhibition of control specific binding ([9]; 100 μM) | influence on locomotor activity (number of crossings, in words) (mice [10]) | other results |
| --- | --- | --- | --- | --- | --- | --- | --- | --- | --- | --- | --- | --- | --- | --- | --- | --- | --- | --- | --- | --- | --- |
| CC1CC(=O)N(CN2CCN(c3ccc(Cl)c(Cl)c3)CC2)C1=O (centres unmarked) [Compound 12, N-[{4-(3,4-dichlorophenyl)-piperazin-1-yl}-methyl]-3-methylpyrrolidine-2,5-dione] | moderate inhibitors | 28 ± 4 | (26) % | 74% | 468.8 ± 39.60 s | 37% and 36.8% | 14 ± 6 | 1.2 | 25 ± 4 | 1.5 | 23 ± 5 | (5) % | 51% | 7.94 (6.57–9.57)*** mA | 118% | 14.27 (8.21–24.80)** mA | 134.0 mg/kg | 20.2% | 59.4% | did not significantly influence on locomotor activity | reduction of the duration of the licking response, first (neurogenic) phase (mice [2]; 0–5 min after 5 % formalin): 39%; prolongation of latency time to pain reaction vs vehicle (mice [11]): 44%; latency time to pain reaction (mice [11]; mean ± SEM, vehicle 27.51 ± 1.36 s, cutoff 60 s): 39.73 ± 3.20 s; TD50 in rotarod test (mice [12]; mice): > 500 mg/kg; motor coordination in the rotarod test (in words) (mice [12]): did not impair the motor coordination |
| O=C1CCC(=O)N1CN1CCN(c2ccc(Cl)c(Cl)c2)CC1 [Compound 23, N-[{4-(3,4-dichlorophenyl)-piperazin-1-yl}-methyl]-pyrrolidine-2,5-dione] | weakly suppressed | 32 ± 3 | (15) % | 89% | 669.4 ± 73.04 s | 95% and 95.4% | 9 ± 3 | 0.7 | 19 ± 2 | 1.2 | 24 ± 2 | (1) % | 27% | 8.42 (7.55–9.39)** mA | 61% | 10.53 (8.06–13.77)**** mA | 128.8 mg/kg | 12.3% | 65.9% | significantly reduced the number of crossings | effect on nocifensive response, first (neurogenic) phase (in words) (mice [2]; 0–5 min after 5 % formalin): did not attenuate the nocifensive response in this phase in a statistically significant manner; Latency to status epilepticus (s) ± SEM (mice [3]; dose 30 mg/kg i.p.): 465.8 ± 37.61 s; antinociceptive activity in the hot plate test (in words) (mice [11]): did not show activity; motor coordination in the rotarod test (in words) (mice [12]): did not impair the motor coordination |
| CC1(C)O[C@@H]2[C@@H](CO[C@@]3(COS(N)(=O)=O)OC(C)(C)O[C@@H]23)O1 [Topiramate] |  |  |  |  |  |  |  |  |  |  |  |  |  |  |  |  |  |  |  |  | % inhibition of control specific binding [13]: 7.9% |
